Counter-ions that a name gives are not always drawn.
Experiments:
[1] = target: T1, 5-lipoxygenase (Rattus norvegicus, UniProt P12527); test: Lipoxygenase inhibitory activity ex vivo (leukotriene B4 in blood after oral administration); conditions: 1 h, SD male rats, one hour before blood sampling, read-out: LTBI ED50 (50% inhibitory amount)
T1 construct: from tissue; host or cells: whole blood of male SD rats
T1 sequence (P12527 1-673): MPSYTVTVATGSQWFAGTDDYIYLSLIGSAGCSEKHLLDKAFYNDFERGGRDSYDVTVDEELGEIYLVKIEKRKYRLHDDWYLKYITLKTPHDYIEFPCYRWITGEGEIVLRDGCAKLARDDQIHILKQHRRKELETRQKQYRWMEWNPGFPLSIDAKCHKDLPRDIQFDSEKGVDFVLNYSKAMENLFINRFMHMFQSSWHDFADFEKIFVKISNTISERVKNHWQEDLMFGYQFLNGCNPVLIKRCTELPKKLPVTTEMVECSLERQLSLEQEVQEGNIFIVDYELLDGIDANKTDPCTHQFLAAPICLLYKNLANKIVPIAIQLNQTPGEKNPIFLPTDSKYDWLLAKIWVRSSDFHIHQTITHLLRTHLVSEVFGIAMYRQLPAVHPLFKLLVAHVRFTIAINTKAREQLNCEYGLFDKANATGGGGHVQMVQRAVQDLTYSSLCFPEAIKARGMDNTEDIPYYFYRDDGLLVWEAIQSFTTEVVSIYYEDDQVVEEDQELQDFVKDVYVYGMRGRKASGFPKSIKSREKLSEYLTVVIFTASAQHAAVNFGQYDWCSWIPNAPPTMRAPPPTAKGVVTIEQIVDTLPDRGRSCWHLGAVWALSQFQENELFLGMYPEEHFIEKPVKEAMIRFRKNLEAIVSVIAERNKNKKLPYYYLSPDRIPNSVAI
From the text: (§1) (Measurement of Lipoxygenase Inhibitory Activity and Thromboxane Synthase Inhibitory Activity in Ex Vivo)
(§2) For the test animals, SD male rats were used. These were made to fast from the day before the test. The test drug was suspended in 0.5% sodium carboxymethylcellulose and orally administered one hour before the blood was taken. The blood was taken from the abdominal aorta and divided for the measurement of the thromboxane synthase inhibitory activity and the 5-lipoxygenase inhibitory activity.
The 5-lipoxygenase activity was shown using as an indicator the amount of production of leukotriene B4. 50 μM calcium ionophor (A-23187) was added to the divided blood to start the reaction (37° C., 30 minutes), and 1 mM Indomethacin, 1 mM Phenidone, and 0.1 mM EGTA were added to stop the reaction. The plasma was centrifuged (3000 rpm, 20 minutes, 4° C.) and the leukotriene B4 in the plasma was measured by the EIA method.

[2] = target: T2, thromboxane synthase (Rattus norvegicus, UniProt P49430); test: Thromboxane synthase inhibitory activity ex vivo (thromboxane B2 in serum after oral administration); conditions: 1 h, SD male rats, one hour before blood sampling, read-out: TxSI ED50 (50% inhibitory amount)
T2 construct: The divided blood was allowed to naturally coagulate; from tissue; host or cells: whole blood of male SD rats, allowed to clot
T2 sequence (P49430 1-533): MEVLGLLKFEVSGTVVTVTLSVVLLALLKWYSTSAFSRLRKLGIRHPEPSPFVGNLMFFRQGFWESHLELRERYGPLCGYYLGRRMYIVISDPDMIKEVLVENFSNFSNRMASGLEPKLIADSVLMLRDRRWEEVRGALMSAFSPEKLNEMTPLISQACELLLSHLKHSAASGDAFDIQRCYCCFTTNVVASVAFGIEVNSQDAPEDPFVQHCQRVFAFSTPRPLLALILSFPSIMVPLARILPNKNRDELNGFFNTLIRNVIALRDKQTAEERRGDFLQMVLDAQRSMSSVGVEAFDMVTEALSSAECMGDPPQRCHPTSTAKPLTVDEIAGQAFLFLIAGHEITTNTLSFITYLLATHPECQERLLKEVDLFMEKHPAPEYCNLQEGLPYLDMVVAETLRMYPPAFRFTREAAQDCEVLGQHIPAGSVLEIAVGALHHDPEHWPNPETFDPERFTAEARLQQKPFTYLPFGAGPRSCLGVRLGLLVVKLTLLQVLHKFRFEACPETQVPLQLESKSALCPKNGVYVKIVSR
From the text: as §1, §2
On the other hand, the thromboxane synthase activity was shown using as an indicator the amount of production of the thromboxane A2 stable metabolite thromboxane B2. The divided blood was allowed to naturally coagulate (25° C., 90 minutes) and then the serum was centrifuged (3000 rpm, 20 minutes, 4° C.) and the amount of thromboxane B2 in the serum was measured by the EIA method.

[3] = tested on: antigen-induced bronchoconstriction; test: Antigen-induced bronchoconstriction model of guinea pig (Konzett-Rossler method); assay type: in vivo; conditions: 2 hours after administration, ovalbumin-sensitized guinea pigs
Description: (Pharmacological Activity on Antigen-Induced Bronchoconstriction Model of Guinea Pig)
Guinea pigs sensitized by ovalbumin were used and orally administered with the test compound suspended in 5% gum arabic. The activity for inhibiting antigen-induced bronchoconstriction after 2 hours after administration was measured by the Konzett-Rossler method.
Each of the sensitized guinea pigs (i.e., 5-7 pigs in one group) was anesthesized by 35 mg/kg pentobarbital, a cannula was inserted into the respiratory tract and connected to an artificial respirator, a cannula was inserted into the jugular vein, and treatment was performed by 5 mg/kg suxamethonium and 5 mg/kg mepyramine. Next, the guinea pig was inhaled a nebulized ovalbumin to cause bronchoconstriction and the activity in inhibiting bronchoconstriction was found from the ratio of the amount of overflow volume to the detector to the amount of air blown volume from the artificial respirator.
As the test compound, the present Compound (I) were used, and as the control, the above compound (A) and the thromboxane synthase inhibitor ozagrel hydrochloride (OKY-046) were used.

[4] = target: T3, lipoxygenase (Rattus norvegicus, UniProt P12527); test: Test of lipoxygenase inhibitory activity in vitro (leukotriene B4 production in polymorphonuclear leukocytes); assay type: cell-based; conditions: calcium ionophore A-23187, read-out: LTBI IC50 (inhibition of the production of leukotriene B4)
T3 construct: the peritoneal cavities were lavaged and the polymorphonuclear leukocytes were recovered; endogenous in cells; host or cells: peritoneal polymorphonuclear leukocytes of male SD rats (casein-elicited)
T3 sequence (P12527 1-673): T1 sequence (P12527 1-673)
Description: (Test of Lipoxygenase Inhibitory Activity in In Vitro)
Using rat polymorphonuclear leukocytes, a test was conducted using as an indicator the amount of production of leukotriene B4. SD male rats (Japan Clea) were intraperitoneally administered with 12% sodium casein. After 16 hours, the peritoneal cavities were lavaged and the polymorphonuclear leukocytes were recovered. The polymorphonuclear leukocytes thus obtained were suspended in a phosphate buffer (137 mM NaCl, 3 mM KCl, 8 mM Na2 HPO4, 2 mM KH2 PO4) (2.5×10^5 cells/0.4 ml), then the test compound (final concentration 10^-5 M) was added and incubation performed for 10 minutes at 37° C. then a calcium solution (10 mM CaCl2, 0.86% NaCl) 0.1 ml was added and incubation performed for 5 minutes, then 1.25 μl of calcium ionophore (20 μM, A-23187) was added and the reaction started. Five minutes after the addition, 250 μl of methanol was added to stop the reaction. After the reaction was stopped, the result was centrifuged for 20 minutes (4° C., 3000 rpm), then the amount of leukotriene B4 in the supernatant was measured by the EIA method (Cayman Co. kit).
(§3) As the test compound, the compound (I) was used for the test.

[5] = target: T4, thromboxane synthase (Homo sapiens, UniProt P24557); test: Test of thromboxane synthase inhibitory activity in vitro (thromboxane B2 production, platelet microsomes); assay type: biochemical; conditions: prostaglandin H2 substrate, read-out: TxSI IC50 (inhibition of production of thromboxane B2)
T4 construct: Human platelet microsomes were used; from tissue; host or cells: human platelet microsomes
T4 sequence (P24557 1-533): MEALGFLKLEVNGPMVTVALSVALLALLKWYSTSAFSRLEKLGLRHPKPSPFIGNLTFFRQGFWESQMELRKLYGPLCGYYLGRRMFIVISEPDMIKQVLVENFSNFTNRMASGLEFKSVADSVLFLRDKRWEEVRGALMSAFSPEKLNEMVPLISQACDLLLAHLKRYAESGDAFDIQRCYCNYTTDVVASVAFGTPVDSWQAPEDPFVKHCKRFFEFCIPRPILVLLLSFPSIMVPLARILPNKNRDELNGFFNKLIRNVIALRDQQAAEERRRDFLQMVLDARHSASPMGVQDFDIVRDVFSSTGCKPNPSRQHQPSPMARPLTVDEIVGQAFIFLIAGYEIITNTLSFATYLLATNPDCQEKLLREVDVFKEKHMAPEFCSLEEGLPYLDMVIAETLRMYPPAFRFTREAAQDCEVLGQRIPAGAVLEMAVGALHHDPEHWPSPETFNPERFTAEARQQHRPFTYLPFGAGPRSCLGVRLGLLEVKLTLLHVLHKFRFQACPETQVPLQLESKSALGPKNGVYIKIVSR
Description: (Test of Thromboxane Synthase Inhibitory Activity in In Vitro)
Human platelet microsomes were used and a test performed using as an indicator the amount of production of the thromboxane A2 stable metabolite thromboxane B2. A buffer solution (20 mM tris-HCl buffer solution, 1 mM EDTA, pH 7.5) containing human platelet microsomes (50 μg protein/ml) and the test compound (final concentration of 10^-6 M) was stirred, then incubated at 0° C. for 30 minutes, followed by adding prostaglandin H2 (100 ng/2 μl ). This was made acidic to stop the reaction, then neutralized with 1M Tris-base, then centrifuged at 3000 rpm for 20 minutes. The amount of the thromboxane B2 in the supernatant was measured by the EIA method (Cayman Co. kit).
as §3

Row | SMILES | ED50 [1] [mg/kg] | ED50 [2] [mg/kg] | Suppression rate of respiratory constriction ([3]; 100 mg/kg oral) [%] | IC50 [4] [nM] | IC50 [5] [nM] | Suppression rate of respiratory constriction ([3]; 50 mg/kg oral) [%]
1 | NC(=O)N(O)CC1=Cc2cc(OCc3cccnc3)ccc2OC1 [(B)] | 9 | > 10 |  |  |  | 
2 | NC(=O)N(O)CC1=Cc2cc(Oc3ccccc3)ccc2OC1 [Compound (A)] | 1.7 | > 30 | 26 |  |  | 
3 | NC(=O)N(O)CC1=Cc2cc(Cc3cccnc3)ccc2OC1 [Compound (I), N-hydroxy-N-[6-(3-pyridylmethyl)-2H-1-benzopyran-3-ylmethyl]urea] | 1.7 | 1.5 |  | 200 | 300 | 75
4 | O=C(O)/C=C/c1ccc(Cn2ccnc2)cc1 [OKY-046, ozagrel hydrochloride] |  |  | 42 |  |  | 

Source: patent US6291482A, “N-hydroxyurea derivative and pharmaceutical composition containing the same” (Nikken Chemicals Co., LTD, priority 1997, dated 2001)
